Entries after “also recorded” stand apart in the source; their conditions may differ.
Experiments:
[1] = Psilocin-d10 pharmacokinetics in female beagle dogs, oral gavage and intravenous (bolus); conditions: for AUC(0-inf) / AUC(0-t) / C0 / clearance / Cmax / Tmax / Vd / half-life / bioavailability: female, beagle, dog, plasma; for AUC(0-inf): AUC0-inf; for C0: C0, female dog plasma
[2] = Pharmacokinetics in male beagle dogs after oral administration by powder in capsule (PIC) or orally disintegrating tablet (ODT); conditions: dog, plasma, 5 mg
[3] = Stability on standing of amorphous form from DSC melt/crash cooling (XRPD); type: physicochemical; conditions: amorphous free base from melt/crash cooling (>185 °C/30 °C)
[4] = Plasma pharmacokinetics and bioavailability in rats, oral gavage and intravenous (bolus); conditions: rat plasma, Group 1, IV, psilocin + psilocin-d10 1 + 1 mg/kg; label = analyte; IAD = immediately after dosing
[5] = female dog plasma, single IV bolus 0.20 mg/kg, Mean (N=3)
[6] = female dog plasma, single IV bolus 0.20 mg/kg, Median (N=3)
[7] = female dog plasma, single IV bolus 0.20 mg/kg, animal 60F
[8] = female dog plasma, single IV bolus 0.20 mg/kg, animal 61F
[9] = female dog plasma, single IV bolus 0.20 mg/kg, animal 723F
[10] = female dog plasma, single oral gavage 1.00 mg/kg, Mean (N=3)
[11] = female dog plasma, single oral gavage 1.00 mg/kg, Median (N=3)
[12] = female dog plasma, single oral gavage 1.00 mg/kg, animal 60F
[13] = female dog plasma, single oral gavage 1.00 mg/kg, animal 61F
[14] = female dog plasma, single oral gavage 1.00 mg/kg, animal 723F
[15] = iv, 0.2 mg/kg, female dog plasma, single IV bolus 0.20 mg/kg, Mean (N=3)
[16] = iv, 0.2 mg/kg, female dog plasma, single IV bolus 0.20 mg/kg, animal 61F
[17] = po, 1 mg/kg, female dog plasma, single oral gavage 1.00 mg/kg, Mean (N=3)
[18] = po, 1 mg/kg, female dog plasma, single oral gavage 1.00 mg/kg, Median (N=3)
[19] = po, 1 mg/kg, female dog plasma, single oral gavage 1.00 mg/kg, animal 60F
[20] = po, 1 mg/kg, female dog plasma, single oral gavage 1.00 mg/kg, animal 61F
[21] = po, 1 mg/kg, female dog plasma, single oral gavage 1.00 mg/kg, animal 723F

In the case of `[2H]C([2H])([2H])N(C([2H])([2H])[2H])C([2H])([2H])C([2H])([2H])c1c[nH]c2cccc(O)c12` [Compound I-3, 3-(2-(bis(methyl-d3)amino)ethyl-1,1,2,2-d4)-1H-indol-4-ol], the “time of last detectable plasma level” value ([1]; dogs, oral administration) is reported as 8 h, the “time of peak plasma levels” value ([1]; dogs, oral administration) is reported as 0.5 h and the “DN AUC0-inf” value [1, 5] is reported as 448 (h*ng/mL)/(mg/kg). For the same compound, the “DN Cmax” value [1, 5] was 229 (ng/mL)/(mg/kg), the “DN AUC0-inf” value [1, 6] was 479 (h*ng/mL)/(mg/kg) and the “DN Cmax” value [1, 6] was 230 (ng/mL)/(mg/kg). The “DN AUC0-inf” value [1, 7] was 366 (h*ng/mL)/(mg/kg), the “DN Cmax” value [1, 7] was 230 (ng/mL)/(mg/kg) and the “DN AUC0-inf” value [1, 8] was 479 (h*ng/mL)/(mg/kg). The “DN Cmax” value [1, 8] was 220 (ng/mL)/(mg/kg), the “DN AUC0-inf” value [1, 9] was 500 (h*ng/mL)/(mg/kg) and the “DN Cmax” value [1, 9] was 239 (ng/mL)/(mg/kg). For the same compound, the “DN AUC0-inf” value [1, 10] was 405 (h*ng/mL)/(mg/kg), the “DN Cmax” value [1, 10] was 146 (ng/mL)/(mg/kg) and the “DN AUC0-inf” value [1, 11] was 414 (h*ng/mL)/(mg/kg). The “DN Cmax” value [1, 11] was 132 (ng/mL)/(mg/kg), the “DN AUC0-inf” value [1, 12] was 374 (h*ng/mL)/(mg/kg) and the “DN Cmax” value [1, 12] was 132 (ng/mL)/(mg/kg). For the same compound, the “DN AUC0-inf” value [1, 13] was 414 (h*ng/mL)/(mg/kg), the “DN Cmax” value [1, 13] was 179 (ng/mL)/(mg/kg) and the “DN AUC0-inf” value [1, 14] was 426 (h*ng/mL)/(mg/kg). For the same compound, the “DN Cmax” value [1, 14] was 126 (ng/mL)/(mg/kg), the AUC(0-inf) [1, 15] was 89.6 ng·h/mL and the AUC(0-inf) ([1]; iv, 0.2 mg/kg, female dog plasma, single IV bolus 0.20 mg/kg, Median (N=3)) was 95.8 ng·h/mL. For the same compound, the AUC(0-inf) ([1]; iv, 0.2 mg/kg, female dog plasma, single IV bolus 0.20 mg/kg, animal 60F) was 73.3 ng·h/mL, the AUC(0-inf) [1, 16] was 95.8 ng·h/mL and the AUC(0-inf) ([1]; iv, 0.2 mg/kg, female dog plasma, single IV bolus 0.20 mg/kg, animal 723F) was 99.9 ng·h/mL. The AUC(0-t) ([1]; iv, 0.2 mg/kg, AUC0-t, female dog plasma, single IV bolus 0.20 mg/kg, Mean (N=3)) was 77.8 ng·h/mL, the AUC(0-t) ([1]; iv, 0.2 mg/kg, AUC0-t, female dog plasma, single IV bolus 0.20 mg/kg, Median (N=3)) was 80.7 ng·h/mL and the AUC(0-t) ([1]; iv, 0.2 mg/kg, AUC0-t, female dog plasma, single IV bolus 0.20 mg/kg, animal 60F) was 67 ng·h/mL. For the same compound, the AUC(0-t) ([1]; iv, 0.2 mg/kg, AUC0-t, female dog plasma, single IV bolus 0.20 mg/kg, animal 61F) was 80.7 ng·h/mL, the AUC(0-t) ([1]; iv, 0.2 mg/kg, AUC0-t, female dog plasma, single IV bolus 0.20 mg/kg, animal 723F) was 85.8 ng·h/mL and the C0 ([1]; iv, 0.2 mg/kg, single IV bolus 0.20 mg/kg, Mean (N=3)) was 57.3 ng/mL. The C0 ([1]; iv, 0.2 mg/kg, single IV bolus 0.20 mg/kg, Median (N=3)) was 62 ng/mL, the C0 ([1]; iv, 0.2 mg/kg, single IV bolus 0.20 mg/kg, animal 60F) was 69.5 ng/mL and the C0 ([1]; iv, 0.2 mg/kg, single IV bolus 0.20 mg/kg, animal 61F) was 40.5 ng/mL. The C0 ([1]; iv, 0.2 mg/kg, single IV bolus 0.20 mg/kg, animal 723F) was 62 ng/mL, the clearance ([1]; iv, 0.2 mg/kg, CL, female dog plasma, single IV bolus 0.20 mg/kg, Mean (N=3)) was 37.8 mL/min/kg and the clearance ([1]; iv, 0.2 mg/kg, CL, female dog plasma, single IV bolus 0.20 mg/kg, animal 60F) was 45.5 mL/min/kg. For the same compound, the clearance ([1]; iv, 0.2 mg/kg, CL, female dog plasma, single IV bolus 0.20 mg/kg, animal 723F) was 33.3 mL/min/kg, the clearance ([1]; iv, 0.2 mg/kg, Clearance (CL), dogs) was 37.8 mL/min/kg and the Cmax ([1]; iv, 0.2 mg/kg, Cmax, female dog plasma, single IV bolus 0.20 mg/kg, Mean (N=3)) was 45.8 ng/mL. For the same compound, the Cmax ([1]; iv, 0.2 mg/kg, Cmax, female dog plasma, single IV bolus 0.20 mg/kg, Median (N=3)) was 45.9 ng/mL, the Cmax ([1]; iv, 0.2 mg/kg, Cmax, female dog plasma, single IV bolus 0.20 mg/kg, animal 60F) was 45.9 ng/mL and the Cmax ([1]; iv, 0.2 mg/kg, Cmax, female dog plasma, single IV bolus 0.20 mg/kg, animal 61F) was 43.9 ng/mL. The Cmax ([1]; iv, 0.2 mg/kg, Cmax, female dog plasma, single IV bolus 0.20 mg/kg, animal 723F) was 47.7 ng/mL, the Tmax [1, 15] was 0.333 h and the Tmax [1, 16] was 0.5 h. It also gave a Vd ([1]; iv, 0.2 mg/kg, Vss, female dog plasma, single IV bolus 0.20 mg/kg, Mean (N=3)) of 4.01 L/kg, a Vd ([1]; iv, 0.2 mg/kg, Vss, female dog plasma, single IV bolus 0.20 mg/kg, Median (N=3)) of 3.96 L/kg and a Vd ([1]; iv, 0.2 mg/kg, Vss, female dog plasma, single IV bolus 0.20 mg/kg, animal 60F) of 3.96 L/kg. For the same compound, the Vd ([1]; iv, 0.2 mg/kg, Vss, female dog plasma, single IV bolus 0.20 mg/kg, animal 61F) was 4.28 L/kg, the Vd ([1]; iv, 0.2 mg/kg, Vss, female dog plasma, single IV bolus 0.20 mg/kg, animal 723F) was 3.79 L/kg and the half-life ([1]; iv, 0.2 mg/kg, elimination half-life, dogs) was 1.35 h. The AUC(0-t) ([1]; iv, 0.2 mg/kg, mean AUC0-t, female dog plasma, single intravenous (bolus) dose) was 77.8 ng·h/mL, the Cmax ([1]; iv, 0.2 mg/kg, mean Cmax, female dog plasma, single intravenous (bolus) dose) was 45.8 ng/mL and the half-life ([1]; iv, 0.2 mg/kg, t1/2, female dog plasma, single IV bolus 0.20 mg/kg, Mean (N=3)) was 1.37 h. It also gave a half-life ([1]; iv, 0.2 mg/kg, t1/2, female dog plasma, single IV bolus 0.20 mg/kg, Median (N=3)) of 1.41 h, a half-life ([1]; iv, 0.2 mg/kg, t1/2, female dog plasma, single IV bolus 0.20 mg/kg, animal 60F) of 1.16 h and a half-life ([1]; iv, 0.2 mg/kg, t1/2, female dog plasma, single IV bolus 0.20 mg/kg, animal 61F) of 1.55 h. For the same compound, the half-life ([1]; iv, 0.2 mg/kg, t1/2, female dog plasma, single IV bolus 0.20 mg/kg, animal 723F) was 1.41 h, the Vd ([1]; iv, 0.2 mg/kg, volume of distribution at steady state (VSS), dogs, intravenous) was 4.01 L/kg and the AUC(0-inf) [1, 17] was 405 ng·h/mL. The AUC(0-inf) [1, 18] was 414 ng·h/mL, the AUC(0-inf) [1, 19] was 374 ng·h/mL and the AUC(0-inf) [1, 20] was 414 ng·h/mL. For the same compound, the AUC(0-inf) [1, 21] was 426 ng·h/mL, the AUC(0-t) ([1]; po, 1 mg/kg, AUC0-t, female dog plasma, single oral gavage 1.00 mg/kg, Mean (N=3)) was 387 ng·h/mL and the AUC(0-t) ([1]; po, 1 mg/kg, AUC0-t, female dog plasma, single oral gavage 1.00 mg/kg, Median (N=3)) was 399 ng·h/mL. For the same compound, the AUC(0-t) ([1]; po, 1 mg/kg, AUC0-t, female dog plasma, single oral gavage 1.00 mg/kg, animal 61F) was 399 ng·h/mL, the AUC(0-t) ([1]; po, 1 mg/kg, AUC0-t, female dog plasma, single oral gavage 1.00 mg/kg, animal 723F) was 404 ng·h/mL and the Cmax ([1]; po, 1 mg/kg, Cmax, female dog plasma, single oral gavage 1.00 mg/kg, Mean (N=3)) was 146 ng/mL. For the same compound, the Cmax ([1]; po, 1 mg/kg, Cmax, female dog plasma, single oral gavage 1.00 mg/kg, Median (N=3)) was 132 ng/mL, the Cmax ([1]; po, 1 mg/kg, Cmax, female dog plasma, single oral gavage 1.00 mg/kg, animal 60F) was 132 ng/mL and the Cmax ([1]; po, 1 mg/kg, Cmax, female dog plasma, single oral gavage 1.00 mg/kg, animal 61F) was 179 ng/mL. The Cmax ([1]; po, 1 mg/kg, Cmax, female dog plasma, single oral gavage 1.00 mg/kg, animal 723F) was 126 ng/mL, the bioavailability ([1]; po, 1 mg/kg, F (Bioavailability), female dog plasma, single oral gavage 1.00 mg/kg, Mean (N=3)) was 91.3% and the bioavailability ([1]; po, 1 mg/kg, F (Bioavailability), female dog plasma, single oral gavage 1.00 mg/kg, Median (N=3)) was 186%. For the same compound, the bioavailability ([1]; po, 1 mg/kg, F (Bioavailability), female dog plasma, single oral gavage 1.00 mg/kg, animal 60F) was 102%, the bioavailability ([1]; po, 1 mg/kg, F (Bioavailability), female dog plasma, single oral gavage 1.00 mg/kg, animal 61F) was 86.5% and the bioavailability ([1]; po, 1 mg/kg, F (Bioavailability), female dog plasma, single oral gavage 1.00 mg/kg, animal 723F) was 85.2%. The Tmax [1, 17] was 0.5 h, the Tmax [1, 18] was 0.5 h and the Tmax [1, 19] was 0.5 h. For the same compound, the Tmax [1, 20] was 0.5 h, the Tmax [1, 21] was 0.5 h and the half-life ([1]; po, 1 mg/kg, elimination half-life, dogs) was 1.77 h. For the same compound, the AUC(0-t) ([1]; po, 1 mg/kg, mean AUC0-t, female dog plasma, single oral (gavage) dose) was 387 ng·h/mL, the Cmax ([1]; po, 1 mg/kg, mean Cmax, female dog plasma, single oral (gavage) dose) was 146 ng/mL and the bioavailability ([1]; po, 1 mg/kg, mean oral bioavailability (%F), dogs, oral 1 mg/kg) was 91.3%. It also gave a half-life ([1]; po, 1 mg/kg, t1/2, female dog plasma, single oral gavage 1.00 mg/kg, Mean (N=3)) of 1.77 h, a half-life ([1]; po, 1 mg/kg, t1/2, female dog plasma, single oral gavage 1.00 mg/kg, Median (N=3)) of 1.8 h and a half-life ([1]; po, 1 mg/kg, t1/2, female dog plasma, single oral gavage 1.00 mg/kg, animal 60F) of 1.82 h. The half-life ([1]; po, 1 mg/kg, t1/2, female dog plasma, single oral gavage 1.00 mg/kg, animal 61F) was 1.69 h, the half-life ([1]; po, 1 mg/kg, t1/2, female dog plasma, single oral gavage 1.00 mg/kg, animal 723F) was 1.8 h and the Tmax [2] was 0.5 h. For the same compound, the Tmax ([2]; oral) was 1 h, the “stability of amorphous form on standing” value [3] was “crystallized overnight to crystal polymorph pattern 2; also recorded: unstable upon standing” and the Tmax [4] was “IAD”.

— patent publication US20250213527A1, “FORMULATIONS OF PSILOCYBIN ANALOGS AND METHODS OF USE” (priority 2021, published 2025)
